This passage reports T/C results from PubChem BioAssay AID292 (DTP/NCI, 2004).

Several values for one entry are separate records, joined by “and”; a condition that tells them apart may be missing. Identical values can stand only once. Toxic doses and inconclusive results are not listed.

This experiment has as its system B6C3F1 mice, ip Sarcoma M5076, median survival T/C. Briefly: NCI In Vivo Anticancer Drug Screen. Data for tumor model Sarcoma M5076 (intraperitoneal) in B6C3F1 mice. The conditions noted are these: endpoint: median survival time, higher = longer survival. Summed up: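 Tumour cells were transplanted into mice, compound or vehicle was given, survival of both groups was followed, and the treated figure was expressed over the control figure.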

Where [1] appears, read: dose: 50.0 mg/kg/injection, schedule: Q04DX004 (ip), vehicle: Klucel (hydroxypropylcellulose) (HPC).
Where [2] appears, read: dose: 100.0 mg/kg/injection, schedule: Q04DX004 (ip), vehicle: Klucel (hydroxypropylcellulose) (HPC).
Where [3] appears, read: dose: 200.0 mg/kg/injection, schedule: Q04DX004 (ip), vehicle: Klucel (hydroxypropylcellulose) (HPC).
[4] abbreviates: dose: 12.5 mg/kg/injection, schedule: Q04DX004 (ip), vehicle: saline.
[5] abbreviates: dose: 25.0 mg/kg/injection, schedule: Q04DX004 (ip), vehicle: saline.
Setting [6] is: dose: 50.0 mg/kg/injection, schedule: Q04DX004 (ip), vehicle: saline.
The mark [7] stands for this setting: dose: 100.0 mg/kg/injection, schedule: Q04DX004 (ip), vehicle: saline.

`Nc1ncn(C2OC(CO)C(O)C2O)c(=O)n1` (stereo unspecified): the T/C runs as follows: (dose: 0.38 mg/kg/injection, schedule: Q01DX009 (ip), vehicle: saline) 100 % of control and 101 % of control; (dose: 0.75 mg/kg/injection, schedule: Q01DX009 (ip), vehicle: saline) 109 % of control and 114 % of control; (dose: 1.5 mg/kg/injection, schedule: Q01DX009 (ip), vehicle: saline) 112 % of control and 115 % of control; (dose: 25.0 mg/kg/injection, schedule: Q01DX009 (ip), vehicle: saline) 150 % of control; (dose: 50.0 mg/kg/injection, schedule: Q01DX009 (ip), vehicle: saline) 155 % of control and 159 % of control; (dose: 100.0 mg/kg/injection, schedule: Q01DX009 (ip), vehicle: saline) 172 % of control.
Consider `Cc1ccc(-c2nnc3cc(C)n4nnnc4n23)cc1`, for which the T/C runs as follows: (dose: 17.5 mg/kg/injection, schedule: Q04DX004 (ip), vehicle: Klucel (hydroxypropylcellulose) (HPC)) 97 % of control; (dose: 35.0 mg/kg/injection, schedule: Q04DX004 (ip), vehicle: Klucel (hydroxypropylcellulose) (HPC)) 99 % of control; (dose: 70.0 mg/kg/injection, schedule: Q04DX004 (ip), vehicle: Klucel (hydroxypropylcellulose) (HPC)) 99 % of control; (dose: 140.0 mg/kg/injection, schedule: Q04DX004 (ip), vehicle: Klucel (hydroxypropylcellulose) (HPC)) 101 % of control; (dose: 280.0 mg/kg/injection, schedule: Q04DX004 (ip), vehicle: Klucel (hydroxypropylcellulose) (HPC)) 97 % of control.
`N#CC1C(=O)NC(=S)NC1c1ccc(Cl)cc1` (stereo unspecified): the T/C reads like this: under setting [1], 103 % of control; under setting [2], 100 % of control.
Turning to `N#CC1C(=O)NC(=S)NC1c1ccccc1` (stereo unspecified), the T/C under setting [1] was 97 % of control; the T/C under setting [2] is 101 % of control; the T/C under setting [3] was 97 % of control; the T/C (dose: 400.0 mg/kg/injection, schedule: Q04DX004 (ip), vehicle: Klucel (hydroxypropylcellulose) (HPC)) is 100 % of control.
For `COc1cc2c(c(OC)c1OC)-c1ccc(SC)c(=O)cc1[C@@H](NC(C)=O)CC2`, the T/C by setting is: (dose: 0.03 mg/kg/injection, schedule: Q04DX004 (ip), vehicle: Klucel (hydroxypropylcellulose) (HPC)) 102 % of control; (dose: 0.05 mg/kg/injection, schedule: Q04DX004 (ip), vehicle: Klucel (hydroxypropylcellulose) (HPC)) 106 % of control; (dose: 0.1 mg/kg/injection, schedule: Q04DX004 (ip), vehicle: Klucel (hydroxypropylcellulose) (HPC)) 104 % of control and 113 % of control; (dose: 0.14 mg/kg/injection, schedule: Q04DX004 (ip), vehicle: Klucel (hydroxypropylcellulose) (HPC)) 114 % of control; (dose: 0.19 mg/kg/injection, schedule: Q04DX004 (ip), vehicle: Klucel (hydroxypropylcellulose) (HPC)) 112 % of control; (dose: 0.23 mg/kg/injection, schedule: Q04DX004 (ip), vehicle: Klucel (hydroxypropylcellulose) (HPC)) 116 % of control. Moreover, for the setting “dose: 0.45 mg/kg/injection, schedule: Q04DX004 (ip), vehicle: Klucel (hydroxypropylcellulose) (HPC)”, the T/C was 103 % of control.
Take `CCn1c2ccccc2c2cc(N=Nc3cc4ccccc4cc3O)ccc21`: the T/C (dose: 43.75 mg/kg/injection, schedule: Q04DX004 (ip), vehicle: Klucel (hydroxypropylcellulose) (HPC)) is 89 % of control.
`CC(=O)N1CN=C2Sc3ccccc3N2C1`: the T/C (dose: 18.75 mg/kg/injection, schedule: Q04DX004 (ip), vehicle: Klucel (hydroxypropylcellulose) (HPC)) was 102 % of control; the T/C (dose: 37.5 mg/kg/injection, schedule: Q04DX004 (ip), vehicle: Klucel (hydroxypropylcellulose) (HPC)) was 111 % of control; the T/C (dose: 75.0 mg/kg/injection, schedule: Q04DX004 (ip), vehicle: Klucel (hydroxypropylcellulose) (HPC)) is 103 % of control; the T/C (dose: 150.0 mg/kg/injection, schedule: Q04DX004 (ip), vehicle: Klucel (hydroxypropylcellulose) (HPC)) is 102 % of control.
Consider `CCOc1ccc(-c2nc3ccc(-c4nc5ccc(N6CCN(C)CC6)cc5[nH]4)cc3[nH]2)cc1`, for which the T/C was 100 % of control (dose: 3.12 mg/kg/injection, schedule: Q04DX004 (ip), vehicle: saline); 88 % of control (dose: 6.25 mg/kg/injection, schedule: Q04DX004 (ip), vehicle: saline); 100 % of control under setting [4]; 92 % of control under setting [5].
On to `N=C(N)c1ccc(N=Nc2c(O)ccc3cc(O)ccc23)cc1`, for which the T/C is 98 % of control and 103 % of control (dose: 12.5 mg/kg/injection, schedule: Q04DX004 (ip), vehicle: Klucel (hydroxypropylcellulose) (HPC)); 95 % of control and 99 % of control (dose: 25.0 mg/kg/injection, schedule: Q04DX004 (ip), vehicle: Klucel (hydroxypropylcellulose) (HPC)); 96 % of control and 103 % of control under setting [1]; 100 % of control and 103 % of control under setting [2]; 97 % of control and 98 % of control under setting [3].
Take `O=C[C@@H](CO)O[C@H](C=O)c1c[nH]c(=O)[nH]c1=O`: the T/C is, setting by setting: under setting [4], 111 % of control and 121 % of control; (dose: 18.0 mg/kg/injection, schedule: Q04DX004 (ip), vehicle: saline) 110 % of control; under setting [5], 114 % of control and 123 % of control; (dose: 30.0 mg/kg/injection, schedule: Q04DX004 (ip), vehicle: saline) 118 % of control; under setting [6], 123 % of control; under setting [7], 165 % of control. Also, the T/C (dose: 138.8 mg/kg/injection, schedule: Q04DX004 (ip), vehicle: saline) is 153 % of control.
Take `O=C1N(CCN2CCC3(CC2)OCCO3)CCN1c1cc(Cl)cc(Cl)c1`: the T/C is, setting by setting: (dose: 25.0 mg/kg/injection, schedule: Q04DX004 (ip), vehicle: water) 104 % of control; (dose: 50.0 mg/kg/injection, schedule: Q04DX004 (ip), vehicle: water) 102 % of control.
On to `CC(=O)OCc1cc(-c2nc3ccccc3[nH]c2=O)nn1-c1ccc(Cl)cc1`, for which the T/C reads like this: (dose: 6.25 mg/kg/injection, schedule: Q04DX004 (ip), vehicle: distilled water + alcohol) 95 % of control; (dose: 12.5 mg/kg/injection, schedule: Q04DX004 (ip), vehicle: distilled water + alcohol) 91 % of control; (dose: 25.0 mg/kg/injection, schedule: Q04DX004 (ip), vehicle: distilled water + alcohol) 88 % of control and 91 % of control; (dose: 200.0 mg/kg/injection, schedule: Q04DX004 (ip), vehicle: distilled water + alcohol) 97 % of control.
As for `CCC(CC)COC(=O)c1ccccc1C(=O)OCC(CC)CC`, the T/C (dose: 75.0 mg/kg/injection, schedule: Q04DX004 (ip), vehicle: saline with Tween-80) is 102 % of control; the T/C (dose: 150.0 mg/kg/injection, schedule: Q04DX004 (ip), vehicle: saline with Tween-80) was 102 % of control; the T/C (dose: 300.0 mg/kg/injection, schedule: Q04DX004 (ip), vehicle: saline with Tween-80) was 104 % of control; the T/C (dose: 600.0 mg/kg/injection, schedule: Q04DX004 (ip), vehicle: saline with Tween-80) is 106 % of control; the T/C (dose: 1200.0 mg/kg/injection, schedule: Q04DX004 (ip), vehicle: saline with Tween-80) is 114 % of control.
Regarding `O=C1N[C@@H]2C(=C[C@H](O)[C@@H](O)[C@H]2O)c2cc3c(c(O)c21)OCO3`, the T/C was 111 % of control (dose: 0.38 mg/kg/injection, schedule: Q01DX009 (ip), vehicle: saline with Tween-80); 91 % of control (dose: 0.38 mg/kg/injection, schedule: Q04DX004 (ip), vehicle: saline with Tween-80); 102 % of control and 110 % of control (dose: 0.75 mg/kg/injection, schedule: Q04DX004 (ip), vehicle: saline with Tween-80); 123 % of control (dose: 1.5 mg/kg/injection, schedule: Q01DX009 (ip), vehicle: saline with Tween-80); 96 % of control and 119 % of control (dose: 1.5 mg/kg/injection, schedule: Q04DX004 (ip), vehicle: saline with Tween-80); 107 % of control (dose: 3.0 mg/kg/injection, schedule: Q04DX004 (ip), vehicle: saline with Tween-80).
Turning to `CN(C)C(=O)Nc1ccc(Cl)cc1`, the T/C is, setting by setting: (dose: 25.0 mg/kg/injection, schedule: Q04DX004 (ip), vehicle: suspension in saline) 107 % of control; (dose: 50.0 mg/kg/injection, schedule: Q04DX004 (ip), vehicle: suspension in saline) 94 % of control and 105 % of control and 113 % of control; (dose: 100.0 mg/kg/injection, schedule: Q04DX004 (ip), vehicle: suspension in saline) 91 % of control and 102 % of control and 104 % of control; (dose: 200.0 mg/kg/injection, schedule: Q04DX004 (ip), vehicle: suspension in saline) 92 % of control and 97 % of control and 113 % of control; (dose: 400.0 mg/kg/injection, schedule: Q04DX004 (ip), vehicle: suspension in saline) 95 % of control and 98 % of control and 99 % of control.
`CCN(CC)CCn1c2c(c3ccc(OC)cc31)CCN1CC3CC(OC(=O)c4cc(OC)c(OC)c(OC)c4)C(OC)C(C(=O)OC)C3CC21` (stereo unspecified): the T/C under setting [5] is 105 % of control; the T/C under setting [6] is 97 % of control; the T/C under setting [7] was 97 % of control; the T/C (dose: 200.0 mg/kg/injection, schedule: Q04DX004 (ip), vehicle: saline) was 86 % of control.
